Data from patent US12239645B2, “Targeted dosing for the treatment of complement mediated disorders” (Achillion Pharmaceuticals, Inc., priority 2018, dated 2025).
In brackets after ≈: the same amount, converted by molar mass. Read-outs that look alike come from different tables or passages of the source.

Key:
[1] = system: complement alternative pathway (AP) activity; experiment: MAD study: ex vivo serum AP hemolysis activity and PK-PD analysis; type: in vivo, human; settings: for inhibition at 200 mg: 200 mg BID; for inhibition at 40 mg: 40 mg BID; for inhibition at 80 mg: 80 mg BID
Method: Ex vivo serum AP hemolysis assays were conducted in 96-well microtiter plates divided into two parts, one for hemolysis and the other for serum background color subtraction. Briefly, a suspension of rabbit red blood cells (RBCs) was centrifuged at 800×g at 4° C. for 3 minutes and the supernatant was removed to get rid of the RBC debris. The RBC cell pellet was re-suspended gently with pre-chilled gelatin veronal buffer (GVB0) containing 10 mM MgEGTA to a density of 5×10^8 cells/mL. Other controls including buffer, spontaneous rabbit RBC lysis, 100% RBC lysis (in water), and normal serum control were set up alongside the test samples as well. Serum was placed in a 37° C. water-bath until mostly thawed and immediately transferred to ice bath. 20% serum was prepared with GVB0-MgEGTA buffer and kept at ice bath before testing. Reactions were carried out in a 96 well plate by mixing 50 μl of 20% serum with equal volume of GVB0-MgEGTA buffer and then quickly adding 20 μl of RBC suspension. The plate was shaken on a microtiter plate shaker for 5 seconds and then incubated at 37° C. for 30 minutes. Halfway during the incubation period, the plate was shaken for another 5 seconds as described above. At the end of the incubation, the plate was centrifuged at 800×g at 4° C. for 3 minutes to pellet the un-lysed rabbit RBCs. 80 μl of supernatant was removed carefully from all wells and transferred to a clear flat-bottom microtiter plate for the measurement of optical absorbance at 405 nm (A405) in a Molecular Devices Spectramax Plus plate reader. AP hemolysis in each well was calculated relative to the activity of the NHS reference sample formulas as follows: Hemolysis (%)=((Hm−Bk)−(Sp−Bf))/((NH−BkNH)−(Sp−Bf))×100%
where Hm=A405 in the hemolysis well, Bk=A405 in the corresponding background well, Sp=mean A405 in the spontaneous hemolysis wells, Bf=mean A405 in the buffer alone wells, NH=mean A405 in the reference NHS wells, and BkNH=mean A405 in the corresponding background wells.
The PK-PD relationship was evaluated using time-matched plasma Compound 1 concentrations and serum AP inhibition values by non-linear regression with GraphPad Prism (La Jolla, CA) using the following two models: • 1. The simple Emax model to determine the 50% effective concentration (EC50): Y=E0+Emax×X/(EC50+X) where X=plasma Compound 1 concentration, Y=percent inhibition in the corresponding serum sample, E0=0% inhibition (pre-dose AP activity), and Emax=100% inhibition. • 2. The four-parameter sigmoidal model to determine EC50 and the 90% effective concentration (EC90): Y=E0+(Emax−E0)/(1+10^((Log EC50−X)×HillSlope)) where X, Y, E0, and Emax are defined as above (Emax model) and HillSlope=the slope factor or Hill slope. Pharmacodynamic and Pharmacokinetic Results AP Activity Measured with AP Hemolysis
A multiple ascending dose (MAD) study of Compound 1 with two additional single-dose cohorts was also completed. […] Secondary objectives included evaluation of the pharmacokinetic (PK) profile and the relationship between Compound 1 PK and pharmacodynamic (PD) characteristics, that is, the inhibition of complement alternative pathway (AP) activity (PK/PD). In the MAD study, multiple-dose pharmacokinetics and pharmacodynamics of Compound 1 were evaluated in four dose groups administered Compound 1 (40, 80, 120 and 200 mg BID) in the fasted state for 14-days (Table 3). Eight subjects received active drug in each group; eight subjects received placebo in the first dose group (40 mg) and two subjects received placebo in each of the other three dose groups. Two additional cohorts were administered Compound 1 at single doses of 240 mg (fasted subjects) and 120 mg (fed subjects) (Table 3). The two single-dose cohorts each comprised six subjects receiving active drug and two subjects receiving placebo. […]

[2] = system: complement alternative pathway (AP) activity; experiment: Steady-state / PK-PD modeling of AP inhibition versus plasma concentration; parameters: species or system human
Method: Based on the ex vivo AP inhibition assay, a steady state model was prepared comparing the % inhibition of Ap based on drug plasma concentration. […] Therefore, Compound 1 is shown to be potent while still having improved safety margins that may allow for better dosing flexibility.

[3] = Homo sapiens, Day 7, AP hemolysis, read-out: AP Inhibition at 0 hr, Mean
[4] = Homo sapiens, Day 7, AP hemolysis, read-out: AP Inhibition at 12 hr, Mean
[5] = Homo sapiens, Day 14, AP hemolysis, read-out: AP Inhibition at 0 hr, Mean
[6] = Homo sapiens, Day 14, AP hemolysis, read-out: AP Inhibition at 12 hr, Mean
[7] = Homo sapiens, 12 h, Days 6 Through 14, AP hemolysis, read-out: AP Inhibition at 12 hr, Mean
[8] = Homo sapiens, sigmoidal model, multiple-dose cohorts, AP hemolysis

How did the inhibition at 200 mg ([1]; Homo sapiens, 0 h, Days 6 Through 14, AP hemolysis, read-out: AP Inhibition at 0 hr, Mean) turn out when CC(=O)c1nn(CC(=O)N2[C@H](C(=O)Nc3nc(Br)ccc3C)C[C@@]3(C)C[C@@H]23)c2ccc(-c3cnc(C)nc3)cc12 [Compound 1, (1R,3S,5R)-2-(2-(3-acetyl-5-(2-methylpyrimidin-5-yl)-1H-indazol-1-yl)acetyl)-N-(6-bromo-3-methylpyridin-2-yl)-5-methyl-2-azabicyclo[3.1.0]hexane-3-carboxamide] was run?
Its inhibition at 200 mg is 97.6%.

And the inhibition at 40 mg [1, 3]?
Its inhibition at 40 mg is 20%.

What about the inhibition at 40 mg [1, 4] of the same compound?
The inhibition at 40 mg was 17.5%.

What about the inhibition at 40 mg [1, 5] of the same compound?
The inhibition at 40 mg was 29.2%.

What about the inhibition at 40 mg [1, 6] of the same compound?
Its inhibition at 40 mg is 29%.

And the inhibition at 80 mg [1, 3]?
The inhibition at 80 mg was 60.5%.

And the inhibition at 80 mg [1, 4]?
The inhibition at 80 mg was 61.5%.

What about the inhibition at 80 mg [1, 5] of the same compound?
Its inhibition at 80 mg is 79%.

And the inhibition at 80 mg [1, 6]?
The inhibition at 80 mg was 52%.

And the inhibition at 120 mg ([1]; Homo sapiens, 120 mg BID, AP Hemolysis and AP Wieslab assays, read-out: AP inhibition, mean value at Ctrough)?
The inhibition at 120 mg was > 90%.

And the inhibition at 120 mg ([1]; Homo sapiens, 120 mg BID, Day 7, AP hemolysis, read-out: AP Inhibition at 0 hr, Mean)?
Its inhibition at 120 mg is 91.8%.

What about the inhibition at 120 mg ([1]; Homo sapiens, 120 mg BID, Day 7, AP hemolysis, read-out: AP Inhibition at 12 hr, Mean) of the same compound?
The inhibition at 120 mg was 86%.

What about the inhibition at 120 mg ([1]; Homo sapiens, 120 mg BID, Day 14, AP hemolysis, read-out: AP Inhibition at 0 hr, Mean) of the same compound?
The inhibition at 120 mg was 99.7%.

And the inhibition at 120 mg ([1]; Homo sapiens, 120 mg BID, Day 14, AP hemolysis, read-out: AP Inhibition at 12 hr, Mean)?
The inhibition at 120 mg was 89.7%.

What about the inhibition at 200 mg ([1]; Homo sapiens, AP Hemolysis and AP Wieslab assays, read-out: AP inhibition, mean value at Ctrough) of the same compound?
Its inhibition at 200 mg is > 95%.

And the inhibition at 200 mg [1, 3]?
The inhibition at 200 mg was 95%.

And the inhibition at 200 mg [1, 4]?
Its inhibition at 200 mg is 97.3%.

What about the inhibition at 200 mg [1, 5] of the same compound?
The inhibition at 200 mg was 98.8%.

And the inhibition at 200 mg [1, 6]?
Its inhibition at 200 mg is 92.8%.

What about the inhibition at 40 mg [1, 7] of the same compound?
The inhibition at 40 mg was 23.3%.

And the inhibition at 80 mg [1, 7]?
Its inhibition at 80 mg is 56.8%.

What about the inhibition at 120 mg ([1]; Homo sapiens, 12 h, 120 mg BID, Days 6 Through 14, AP hemolysis, read-out: AP Inhibition at 12 hr, Mean) of the same compound?
The inhibition at 120 mg was 87.8%.

And the inhibition at 200 mg [1, 7]?
Its inhibition at 200 mg is 95.1%.

What about the inhibition at 0.08 µg/mL ([1]; Homo sapiens, at Ctrough of about 80 ng/mL, MAD, ex vivo AP activity assays) of the same compound?
Its inhibition at 0.08 µg/mL is ~90%.

And the inhibition at 0.15 µg/mL ([1]; Homo sapiens, at Ctrough of about 150 ng/mL, MAD, ex vivo AP activity assays)?
The inhibition at 0.15 µg/mL was > 95%.

What about the inhibition at 120 mg ([1]; Homo sapiens, po, steady state Ctrough, oral 120 mg BID, read-out: mean alternative pathway inhibition) of the same compound?
The inhibition at 120 mg was > 95%.

What about the EC50 ([1]; Homo sapiens, simple Emax model, multiple-dose cohorts, AP hemolysis) of the same compound?
Its EC50 is 0.0191 µg/mL (≈ 0.0317 µM).

And the IC90 ([1]; Homo sapiens, sigmoidal model, multiple ascending dose, ex-vivo AP hemolysis, FIG. 12, read-out: modeled IC90 drug plasma concentration (90% inhibition level))?
The IC90 was 0.088 µg/mL (≈ 0.146 µM).

What about the EC50 [1, 8] of the same compound?
Its EC50 is 0.0246 µg/mL (≈ 0.0408 µM).

And the EC90 [1, 8]?
The EC90 was 0.0881 µg/mL (≈ 0.146 µM).

What about the “recovery of AP activity to approximately pre-dose levels” value ([1]; all doses, three days after the last dose) of the same compound?
The value was ≤ 17 days.

What about the “potency relative to Danicopan (IC90 plasma concentration)” value ([1]; sigmoidal model, FIG. 12) of the same compound?
The value was “more than 2.5 times”.

And the “time of recovery of AP hemolysis activity to nearly pre-dose levels” value ([1]; single-dose cohorts 240 mg and 120 mg)?
Its value is ≤ 48 h.

And the “inhibition of AP activity” value ([2]; at Ctrough of 65 ng/mL to 95 ng/mL)?
The value was “greater than 85%”.

And the AP inhibition ([2]; at Ctrough of about 88 ng/mL)?
Its AP inhibition is > 90%.

And the AP inhibition ([2]; at Ctrough of about 67-88 ng/mL)?
The AP inhibition was “greater than 90%”.

And the “EC90 (plasma concentration providing about 90% AP activity inhibition)” value ([2]; modeling)?
Its value is 0.067 to 0.088 µg/mL.

And the “IC90 of AP activity (Ctrough for 90% inhibition)” value ([2]; steady-state modeling from SAD ex vivo AP inhibition, FIG. 10)?
The value was “about 67 ng/mL”.
